According to patent EP2987533B1, “7-substituted piperazin-1-yl fluoroquinolone compounds, their use in the treatment of cancer, pharmaceutical compositions and a method for preparation” (priority 2014, dated 2016):

What was measured:
breast cancer = test: NCI five-dose SRB assay, subpanel average; settings: 48 h
melanoma = test: NCI five-dose SRB assay, subpanel average; settings: 48 h
renal cancer = test: NCI five-dose SRB assay, subpanel average; settings: 48 h
[1] = test system: full panel of about 60 human tumor cell lines; test: NCI five-dose SRB assay, full panel mean; settings: 48 h
colon cancer = test: NCI five-dose SRB assay, subpanel average; settings: 48 h
[2] = test system: 60 human tumor cell line panel; test: NCI 60 cell line one-dose SRB primary anticancer assay; format: cell-based; settings: 60 cell lines assay in one dose, 10µM (title; head prints 10.0 mM), 48 h
NSC lung cancer = test: NCI five-dose SRB assay, subpanel average; settings: 48 h
HCT-15 = test: NCI one-dose SRB growth assay; format: cell-based; settings: Homo sapiens; HCT-15 (Colon Cancer), 10^-5 M, 48 h; read-out: % Growth Inhibition (GI %)
Protocol: (§1) A primary anticancer assay was performed for an approximately 60 human tumor cell line panel derived from nine neoplastic diseases, in accordance with the protocol of the Drug Evaluation Branch, National Cancer Institute, Bethesda, MD (Monks A. et al., J. Natl. Cancer Inst 1991, 83, 757-766; Boyd M.R. and Paull K.D., Drug. Dev. Res. 1995, 34, 91-109; Shoemaker R.H., Nat. Rev. Cancer 2006, 6, 813-823). Briefly, tested compounds were added to the culture at a single concentration (10^-5M), and the cultures were incubated for 48 h. End point determinations were made with a protein binding dye, sulforhodamine B (SRB). The results for each tested compound were reported as the growth percentage of the treated cells when compared to that of the untreated control cells. The percentage growth was evaluated spectrophotometrically versus controls not treated with test agents.

COLO 205 = test: NCI one-dose SRB growth assay; format: cell-based; settings: Homo sapiens; COLO 205 (Colon Cancer), 10^-5 M, 48 h; read-out: % Growth Inhibition (GI %)
Protocol: as §1

MOLT-4 = test: NCI one-dose SRB growth assay; format: cell-based; settings: Homo sapiens; MOLT-4 (Leukemia), 10^-5 M, 48 h; read-out: % Growth Inhibition (GI %)
Protocol: as §1

UACC-257 = test: NCI one-dose SRB growth assay; format: cell-based; settings: Homo sapiens; UACC-257 (Melanoma), 10^-5 M, 48 h; read-out: % Growth Inhibition (GI %)
Protocol: as §1

SNB-75 = test: NCI one-dose SRB growth assay; format: cell-based; settings: Homo sapiens; SNB-75 (CNS Cancer), 10^-5 M, 48 h; read-out: % Growth Inhibition (GI %)
Protocol: as §1

MCF7 = test: NCI one-dose SRB growth assay; format: cell-based; settings: Homo sapiens; MCF7 (Breast Cancer), 10^-5 M, 48 h; read-out: % Growth Inhibition (GI %)
Protocol: as §1

MDA-MB-231/ATCC = test: NCI one-dose SRB growth assay; format: cell-based; settings: Homo sapiens; MDA-MB- 231/ATCC (Breast Cancer), 10^-5 M, 48 h; read-out: % Growth Inhibition (GI %)
Protocol: as §1

OVCAR-5 = test: NCI one-dose SRB growth assay; format: cell-based; settings: Homo sapiens; OVCAR-5 (Ovarian Cancer), 10^-5 M, 48 h; read-out: % Growth Inhibition (GI %)
Protocol: as §1

K-562 = test: NCI one-dose SRB growth assay; format: cell-based; settings: Homo sapiens, K562; K-562 (Leukemia), 10^-5 M, 48 h; read-out: % Growth Inhibition (GI %)
Protocol: as §1

DU-145 = test: NCI one-dose SRB growth assay; format: cell-based; settings: Homo sapiens; DU-145 (Prostate Cancer), 10^-5 M, 48 h; read-out: % Growth Inhibition (GI %)
Protocol: as §1

HT29 = test: NCI one-dose SRB growth assay; format: cell-based; settings: Homo sapiens, HT-29; HT29 (Colon Cancer), 10^-5 M, 48 h; read-out: % Growth Inhibition (GI %)
Protocol: as §1

PRMI-8226 = test: NCI one-dose SRB growth assay; format: cell-based; settings: Homo sapiens; PRMI-8226 (Leukemia), 10^-5 M, 48 h; read-out: % Growth Inhibition (GI %)
Protocol: as §1

786-0 = test: NCI one-dose SRB growth assay; format: cell-based; settings: Homo sapiens; 786-0 (Renal Cancer), 10^-5 M, 48 h; read-out: % Growth Inhibition (GI %)
Protocol: as §1

CCRF-CEM = test: NCI one-dose SRB growth assay; format: cell-based; settings: Homo sapiens; CCRF-CEM (Leukemia), 10^-5 M, 48 h; read-out: % Growth Inhibition (GI %)
Protocol: as §1

SF-539 = test: NCI one-dose SRB growth assay; format: cell-based; settings: Homo sapiens; SF-539 (CNS Cancer), 10^-5 M, 48 h; read-out: % Growth Inhibition (GI %)
Protocol: as §1

SW-620 = test: NCI one-dose SRB growth assay; format: cell-based; settings: Homo sapiens; SW-620 (Colon Cancer), 10^-5 M, 48 h; read-out: % Growth Inhibition (GI %)
Protocol: as §1

SF-268 = test: NCI one-dose SRB growth assay; format: cell-based; settings: Homo sapiens; SF-268 (CNS Cancer), 10^-5 M, 48 h; read-out: % Growth Inhibition (GI %)
Protocol: as §1

HOP-62 = test: NCI one-dose SRB growth assay; format: cell-based; settings: Homo sapiens; HOP-62 (Non-Small Cell Lung Cancer), 10^-5 M, 48 h; read-out: % Growth Inhibition (GI %)
Protocol: as §1

[3] = Homo sapiens, read-out: GI50 (median growth inhibitory)
[4] = Homo sapiens, read-out: LC50 (median lethal)

CCn1cc(C(=O)O)c(=O)c2cc(F)c(N3CCN(S(=O)(=O)c4cccc5ccccc45)CC3)cc21 [Compound 7a]
GI50 (breast cancer; [3]): 2.81 µM
CC50 (breast cancer; [4]): > 100 µM
TGI (total growth inhibitory) (breast cancer; average over breast cancer subpanel, five concentrations): 38.49 µM
GI50 (melanoma; [3]): 3.2 µM
CC50 (melanoma; [4]): 99.7 µM
TGI (total growth inhibitory) (melanoma; average over melanoma subpanel, five concentrations): 28.33 µM
GI50 (renal cancer; [3]): 3.5 µM
CC50 (renal cancer; [4]): > 100 µM
TGI (total growth inhibitory) (renal cancer; average over renal cancer subpanel, five concentrations): 63.09 µM
CC50 ([1]; Homo sapiens, 60 cell, read-out: LC50 MG-MID (Full panel mean-graph midpoint)): 95.5 µM
GI50 ([1]; Homo sapiens, read-out: GI50 MG-MID (Full panel mean-graph midpoint)): 3.09 µM
TGI MG-MID (Full panel mean-graph midpoint) ([1]; full panel, five concentrations): 29.51 µM
GI50 (colon cancer; [3]): 3.39 µM
CC50 (colon cancer; [4]): 86.8 µM
TGI (total growth inhibitory) (colon cancer; average over colon cancer subpanel, five concentrations): 67.85 µM
PCE (Positive cytotoxic effect: ratio between number of cell lines with percentage growth inhibition from 10 to >100 and total number of cell lines) [2]: 58/58
RGI % (Range of growth inhibition percentage) [2]: >100.0 to 40.83%
inhibition at 10 µM ([2]; Homo sapiens, read-out: MGI % (Mean growth inhibition percentage)): 93.8%
GI50 (NSC lung cancer; [3]): 3.04 µM
CC50 (NSC lung cancer; [4]): > 100 µM
TGI (total growth inhibitory) (NSC lung cancer; average over NSC lung cancer subpanel, five concentrations): 46.59 µM
inhibition at 10 µM (HCT-15): 88.9%
inhibition at 10 µM (COLO 205): > 100%
inhibition at 10 µM (MOLT-4): 91.6%
inhibition at 10 µM (UACC-257): 86%
inhibition at 10 µM (SNB-75): 85.9%
inhibition at 10 µM (MCF7): 85.4%
inhibition at 10 µM (MDA-MB-231/ATCC): 76.1%
inhibition at 10 µM (OVCAR-5): 84.5%
inhibition at 10 µM (K-562): 84.6%
inhibition at 10 µM (DU-145): 81.1%
inhibition at 10 µM (HT29): 96%
inhibition at 10 µM (PRMI-8226): 93.5%
inhibition at 10 µM (786-0): 75.7%
inhibition at 10 µM (CCRF-CEM): 87.9%
inhibition at 10 µM (SF-539): 82.6%
inhibition at 10 µM (SW-620): 77.2%
inhibition at 10 µM (SF-268): 83.6%
inhibition at 10 µM (HOP-62): 84.9%
